The kinase profiling compilation of Christmann-Franck et al. (2016)

Assays:
Assay in all cases: radiometric filter-binding kinase assay
PAK7 (human) = PAK7 (human) (UniProt Q9P286)
SYK (human) = SYK (human) (UniProt P43405)
ERBB4 (human) = ERBB4 (human) (UniProt Q15303)
MAP2K6 (human) = MAP2K6 (human) (UniProt P52564)
MAPK1 (human) = MAPK1 (human) (UniProt P28482)
PAK4 (human) = PAK4 (human) (UniProt O96013)
MAPK8 (human) = MAPK8 (human) (UniProt P45983)
MARK2 (human) = MARK2 (human) (UniProt Q7KZI7); conditions: compound 1.0 µM
NUAK1 (human) = NUAK1 (human) (UniProt O60285)
EPHB3 (human) = EPHB3 (human) (UniProt P54753)
CaMK1 (human) = CaMK1 (human) (UniProt Q14012)
DYRK1A (human) = DYRK1A (human) (UniProt Q13627)
MAPK10 (human) = MAPK10 (human) (UniProt P53779)
HIPK2 (human) = HIPK2 (human) (UniProt Q9H2X6)
BRSK2 (human) = BRSK2 (human) (UniProt Q8IWQ3)
PLK1 (human) = PLK1 (human) (UniProt P53350)
MAPKAPK3 (human) = MAPKAPK3 (human) (UniProt Q16644)
PRKCA (human) = PRKCA (human) (UniProt P17252)
[1] = test system: AKT1 (human), P31749 [S473D]
MAPK3 (human) = MAPK3 (human) (UniProt P27361)
PRKAA1 or PRKAA2 (rat) = conditions: accession and sequence are those of the human protein
MAPK12 (human) = MAPK12 (human) (UniProt P53778)
AURKA (human) = AURKA (human) (UniProt O14965)
DYRK2 (human) = DYRK2 (human) (UniProt Q92630)
MAPK13 (human) = MAPK13 (human) (UniProt O15264)
[2] = test system: SGK1 (human), O00141 [S422D]
MAP3K11 (human) = MAP3K11 (human) (UniProt Q16584)
EPHB2 (human) = EPHB2 (human) (UniProt P29323)
NEK2 (human) = NEK2 (human) (UniProt P51955)
RPS6KA1 KD1 KD2 (human) = RPS6KA1 KD1 KD2 (human) (UniProt Q15418)
PRKACA (human) = PRKACA (human) (UniProt P17612)
MST4 (human) = MST4 (human) (UniProt Q9P289)
MKNK1 (human) = MKNK1 (human) (UniProt Q9BUB5)
IKBKE (human) = IKBKE (human) (UniProt Q14164); conditions: compound 10.0 µM
CHEK2 (human) = CHEK2 (human) (UniProt O96017)

AKT1 (human), P31749 [S473D], sequence (P31749 whole entry S473D, looked up): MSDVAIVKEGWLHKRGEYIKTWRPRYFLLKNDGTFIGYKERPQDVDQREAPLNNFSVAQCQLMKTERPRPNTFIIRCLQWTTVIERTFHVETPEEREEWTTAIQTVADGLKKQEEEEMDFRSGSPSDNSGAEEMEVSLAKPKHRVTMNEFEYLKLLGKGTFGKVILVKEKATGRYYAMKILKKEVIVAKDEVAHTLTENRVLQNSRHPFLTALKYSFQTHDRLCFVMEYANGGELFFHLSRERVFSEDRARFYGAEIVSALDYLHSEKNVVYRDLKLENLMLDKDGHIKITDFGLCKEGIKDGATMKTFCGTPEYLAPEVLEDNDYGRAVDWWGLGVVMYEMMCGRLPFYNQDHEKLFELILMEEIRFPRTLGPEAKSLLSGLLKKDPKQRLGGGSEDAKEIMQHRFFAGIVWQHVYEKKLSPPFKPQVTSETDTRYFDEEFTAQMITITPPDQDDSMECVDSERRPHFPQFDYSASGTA
SGK1 (human), O00141 [S422D], sequence (O00141 whole entry S422D, looked up): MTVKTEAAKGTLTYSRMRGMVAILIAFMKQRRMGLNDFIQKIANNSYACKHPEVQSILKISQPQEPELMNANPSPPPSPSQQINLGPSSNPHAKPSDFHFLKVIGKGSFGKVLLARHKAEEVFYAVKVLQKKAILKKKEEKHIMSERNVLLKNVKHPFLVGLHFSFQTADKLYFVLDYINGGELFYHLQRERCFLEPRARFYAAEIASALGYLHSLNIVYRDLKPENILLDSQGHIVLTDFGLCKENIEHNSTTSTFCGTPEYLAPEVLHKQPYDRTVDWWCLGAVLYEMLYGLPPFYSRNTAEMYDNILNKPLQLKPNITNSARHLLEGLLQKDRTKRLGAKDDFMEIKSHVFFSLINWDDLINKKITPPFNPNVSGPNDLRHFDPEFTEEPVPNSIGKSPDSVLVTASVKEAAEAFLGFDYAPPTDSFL
AURKA (human), sequence (O14965 whole entry, looked up): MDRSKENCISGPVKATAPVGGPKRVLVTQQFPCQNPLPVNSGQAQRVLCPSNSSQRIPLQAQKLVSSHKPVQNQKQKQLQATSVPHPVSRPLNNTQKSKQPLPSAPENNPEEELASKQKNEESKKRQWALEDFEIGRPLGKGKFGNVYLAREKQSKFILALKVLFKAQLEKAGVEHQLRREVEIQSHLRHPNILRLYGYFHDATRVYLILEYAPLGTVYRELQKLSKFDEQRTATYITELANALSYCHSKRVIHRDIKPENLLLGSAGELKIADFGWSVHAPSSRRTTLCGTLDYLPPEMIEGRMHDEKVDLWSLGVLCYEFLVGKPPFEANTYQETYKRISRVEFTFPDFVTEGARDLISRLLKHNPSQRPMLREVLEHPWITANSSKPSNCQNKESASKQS
MAPKAPK3 (human), sequence (Q16644 whole entry, looked up): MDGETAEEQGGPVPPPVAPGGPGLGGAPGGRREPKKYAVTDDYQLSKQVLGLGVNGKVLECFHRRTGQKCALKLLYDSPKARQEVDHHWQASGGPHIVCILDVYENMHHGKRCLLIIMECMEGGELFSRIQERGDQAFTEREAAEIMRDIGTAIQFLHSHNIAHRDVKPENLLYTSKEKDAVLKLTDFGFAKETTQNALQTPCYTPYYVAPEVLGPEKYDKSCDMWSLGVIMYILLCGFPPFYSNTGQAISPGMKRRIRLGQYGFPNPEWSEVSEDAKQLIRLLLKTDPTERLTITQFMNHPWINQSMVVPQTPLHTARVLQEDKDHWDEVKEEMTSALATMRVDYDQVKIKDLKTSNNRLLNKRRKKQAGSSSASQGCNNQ
ERBB4 (human), sequence (Q15303 whole entry, looked up): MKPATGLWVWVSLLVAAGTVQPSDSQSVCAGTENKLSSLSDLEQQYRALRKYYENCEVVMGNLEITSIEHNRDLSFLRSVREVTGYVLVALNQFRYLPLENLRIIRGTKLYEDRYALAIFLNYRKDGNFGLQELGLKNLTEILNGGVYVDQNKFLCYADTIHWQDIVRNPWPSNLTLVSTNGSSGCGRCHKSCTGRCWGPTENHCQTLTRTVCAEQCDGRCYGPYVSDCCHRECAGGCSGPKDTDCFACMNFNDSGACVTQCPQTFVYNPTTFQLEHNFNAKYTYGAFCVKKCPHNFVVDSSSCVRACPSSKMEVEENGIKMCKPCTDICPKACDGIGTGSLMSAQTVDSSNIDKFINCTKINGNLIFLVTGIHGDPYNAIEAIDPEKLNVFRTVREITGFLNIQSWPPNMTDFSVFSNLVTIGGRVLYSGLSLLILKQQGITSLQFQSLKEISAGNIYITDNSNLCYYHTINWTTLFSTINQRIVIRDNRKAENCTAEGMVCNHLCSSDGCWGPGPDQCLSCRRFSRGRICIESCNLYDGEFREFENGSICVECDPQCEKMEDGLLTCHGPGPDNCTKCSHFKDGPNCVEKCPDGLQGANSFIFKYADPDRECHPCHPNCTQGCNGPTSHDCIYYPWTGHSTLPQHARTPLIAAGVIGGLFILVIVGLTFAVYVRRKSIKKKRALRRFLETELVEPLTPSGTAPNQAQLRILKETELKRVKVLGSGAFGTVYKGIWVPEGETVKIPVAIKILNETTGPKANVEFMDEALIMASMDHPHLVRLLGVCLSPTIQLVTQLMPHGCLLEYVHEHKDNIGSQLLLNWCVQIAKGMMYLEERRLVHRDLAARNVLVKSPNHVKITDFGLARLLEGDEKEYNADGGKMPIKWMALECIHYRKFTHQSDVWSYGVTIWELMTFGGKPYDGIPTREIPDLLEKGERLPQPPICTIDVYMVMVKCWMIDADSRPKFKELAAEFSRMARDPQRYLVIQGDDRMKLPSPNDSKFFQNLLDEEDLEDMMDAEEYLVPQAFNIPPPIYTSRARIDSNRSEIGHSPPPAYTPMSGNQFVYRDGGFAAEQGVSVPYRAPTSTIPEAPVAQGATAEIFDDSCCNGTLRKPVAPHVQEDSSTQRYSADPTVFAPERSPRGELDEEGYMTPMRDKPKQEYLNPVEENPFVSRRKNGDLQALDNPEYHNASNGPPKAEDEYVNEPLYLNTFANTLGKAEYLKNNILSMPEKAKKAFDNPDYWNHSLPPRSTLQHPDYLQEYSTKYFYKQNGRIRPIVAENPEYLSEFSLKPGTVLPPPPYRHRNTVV
MAPK12 (human), sequence (P53778 whole entry, looked up): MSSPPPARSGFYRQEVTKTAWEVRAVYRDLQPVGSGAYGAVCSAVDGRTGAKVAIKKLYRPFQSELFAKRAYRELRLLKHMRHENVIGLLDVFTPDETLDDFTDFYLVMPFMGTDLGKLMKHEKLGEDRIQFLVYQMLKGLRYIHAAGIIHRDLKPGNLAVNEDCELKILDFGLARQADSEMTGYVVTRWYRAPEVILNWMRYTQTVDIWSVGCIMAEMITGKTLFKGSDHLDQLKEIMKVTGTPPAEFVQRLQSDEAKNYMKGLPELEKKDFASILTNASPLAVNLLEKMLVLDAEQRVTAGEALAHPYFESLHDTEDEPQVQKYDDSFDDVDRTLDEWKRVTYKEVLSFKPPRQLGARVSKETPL
CaMK1 (human), sequence (Q14012 whole entry, looked up): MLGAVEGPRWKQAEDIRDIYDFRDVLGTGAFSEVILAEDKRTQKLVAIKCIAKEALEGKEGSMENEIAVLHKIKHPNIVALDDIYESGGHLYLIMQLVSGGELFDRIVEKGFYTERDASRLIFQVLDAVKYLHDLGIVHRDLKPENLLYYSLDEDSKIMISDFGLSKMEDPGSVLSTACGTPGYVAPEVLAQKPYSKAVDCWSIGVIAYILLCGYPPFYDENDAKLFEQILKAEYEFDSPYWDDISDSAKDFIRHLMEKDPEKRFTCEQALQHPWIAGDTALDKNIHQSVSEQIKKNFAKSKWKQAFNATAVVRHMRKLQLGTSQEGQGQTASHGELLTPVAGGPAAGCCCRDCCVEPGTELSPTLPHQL
MAPK1 (human), sequence (P28482 whole entry, looked up): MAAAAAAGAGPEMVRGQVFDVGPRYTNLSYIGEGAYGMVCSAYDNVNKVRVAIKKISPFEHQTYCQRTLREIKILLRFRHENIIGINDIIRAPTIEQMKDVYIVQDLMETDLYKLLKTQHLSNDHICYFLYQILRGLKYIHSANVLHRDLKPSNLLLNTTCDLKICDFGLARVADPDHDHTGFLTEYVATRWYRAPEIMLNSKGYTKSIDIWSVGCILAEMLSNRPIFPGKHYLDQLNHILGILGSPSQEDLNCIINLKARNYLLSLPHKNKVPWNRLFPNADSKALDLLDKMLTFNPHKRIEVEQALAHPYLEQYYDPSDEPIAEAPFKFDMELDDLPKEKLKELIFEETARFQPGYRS

Question: What does the source list for NC(=O)c1c(NC(=O)C2CC2)sc2c1CCCC2?
Answer: residual activity (PAK7 (human); compound 1.0 µM): 100%; residual activity (PAK7 (human); compound 10.0 µM): 54%; residual activity (SYK (human); compound 1.0 µM): 102%; residual activity (SYK (human); compound 10.0 µM): 106%; residual activity (ERBB4 (human); compound 1.0 µM): 106%; residual activity (ERBB4 (human); compound 10.0 µM): 98%; residual activity (MAP2K6 (human); compound 1.0 µM): 109%; residual activity (MAP2K6 (human); compound 10.0 µM): 99%; residual activity (MAPK1 (human); compound 1.0 µM): 99%; residual activity (MAPK1 (human); compound 10.0 µM): 89%; residual activity (PAK4 (human); compound 1.0 µM): 93%; residual activity (PAK4 (human); compound 10.0 µM): 46%; residual activity (MAPK8 (human); compound 1.0 µM): 97%; residual activity (MAPK8 (human); compound 10.0 µM): 102%; residual activity (MARK2 (human)): 97%; residual activity (NUAK1 (human); compound 1.0 µM): 75%; residual activity (NUAK1 (human); compound 10.0 µM): 30%; residual activity (EPHB3 (human); compound 1.0 µM): 115%; residual activity (EPHB3 (human); compound 10.0 µM): 109%; residual activity (CaMK1 (human); compound 1.0 µM): 98%; residual activity (CaMK1 (human); compound 10.0 µM): 70%; residual activity (DYRK1A (human); compound 1.0 µM): 85%; residual activity (DYRK1A (human); compound 10.0 µM): 48%; residual activity (MAPK10 (human); compound 1.0 µM): 94%; residual activity (MAPK10 (human); compound 10.0 µM): 84%; residual activity (HIPK2 (human); compound 1.0 µM): 94%; residual activity (HIPK2 (human); compound 10.0 µM): 52%; residual activity (BRSK2 (human); compound 1.0 µM): 99%; residual activity (BRSK2 (human); compound 10.0 µM): 73%; residual activity (PLK1 (human); compound 1.0 µM): 98%; residual activity (PLK1 (human); compound 10.0 µM): 100%; residual activity (MAPKAPK3 (human); compound 1.0 µM): 100%; residual activity (MAPKAPK3 (human); compound 10.0 µM): 93%; residual activity (PRKCA (human); compound 1.0 µM): 93%; residual activity (PRKCA (human); compound 10.0 µM): 86%; residual activity ([1]; compound 1.0 µM): 115%; residual activity ([1]; compound 10.0 µM): 102%; residual activity (MAPK3 (human); compound 1.0 µM): 107%; residual activity (MAPK3 (human); compound 10.0 µM): 125%; residual activity (PRKAA1 or PRKAA2 (rat); compound 1.0 µM): 103%; residual activity (PRKAA1 or PRKAA2 (rat); compound 10.0 µM): 86%; residual activity (MAPK12 (human); compound 1.0 µM): 93%; residual activity (MAPK12 (human); compound 10.0 µM): 94%; residual activity (AURKA (human); compound 1.0 µM): 87%; residual activity (AURKA (human); compound 10.0 µM): 22%; residual activity (DYRK2 (human); compound 1.0 µM): 109%; residual activity (DYRK2 (human); compound 10.0 µM): 86%; residual activity (MAPK13 (human); compound 1.0 µM): 116%; residual activity (MAPK13 (human); compound 10.0 µM): 97%; residual activity ([2]; compound 1.0 µM): 109%; residual activity ([2]; compound 10.0 µM): 107%; residual activity (MAP3K11 (human); compound 1.0 µM): 89%; residual activity (MAP3K11 (human); compound 10.0 µM): 37%; residual activity (EPHB2 (human); compound 1.0 µM): 104%; residual activity (EPHB2 (human); compound 10.0 µM): 62%; residual activity (NEK2 (human); compound 1.0 µM): 99%; residual activity (NEK2 (human); compound 10.0 µM): 92%; residual activity (RPS6KA1 KD1 KD2 (human); compound 1.0 µM): 101%; residual activity (RPS6KA1 KD1 KD2 (human); compound 10.0 µM): 95%; residual activity (PRKACA (human); compound 1.0 µM): 100%; residual activity (PRKACA (human); compound 10.0 µM): 102%; residual activity (MST4 (human); compound 1.0 µM): 100%; residual activity (MST4 (human); compound 10.0 µM): 57%; residual activity (MKNK1 (human); compound 1.0 µM): 97%; residual activity (MKNK1 (human); compound 10.0 µM): 77%; residual activity (IKBKE (human)): 109%; residual activity (CHEK2 (human); compound 1.0 µM): 74%; residual activity (CHEK2 (human); compound 10.0 µM): 35%
